# Reference: PubChem BioAssay AID2060907 (Molecular Pharmacology Branch, DTP, NCI, 2025)
# Tested on: 388556-164-R-J1-PDC complex spheroid viability
# Assay: Anticancer human tumor 388556-164-R-J1-PDC patient-derived colon adenocarcinoma cell line growth inhibition [RAS]
# Details: for IC50: curve of first compound; for viability, T/C: stronger effect = lower value
# Excerpt: RAS pathway inhibitors in Combinations in Complex Spheroids
# A high-throughput screen of multi-cell type tumor spheroids was designed to identify active combinations of RAS pathway inhibitors and targeted small molecules. Complex spheroids include a stromal component modeled by human endothelial cells (HUVEC) and fibroblasts modeled by human mesenchymal stem cells (MSCs). The concentration ranges selected for each drug and investigational agent were based upon clinically achievable concentrations if the clinical Cmax of the agent was known.
# Compounds. The drugs and investigational agents: abemaciclib (NSC768073), cobimetinib (NSC768068), divarasib (GDC6063, NSC841802), docetaxel (NSC628503), GDC-1971 (RLY-1971, NSC841576), gemcitabine (NSC613327), inavolisib (NSC800729), ipatasertib (NSC767898), KB-0742 (NSC834161), MRTX-1133 (NSC836407), osimertinib (NSC779217), RMC-4630 (NSC839698), RMC-6236 (NSC851965), RMC-6291 (NSC852671), Ro-3306 (NSC812927), sapanisertib (NSC764658), SN-38 (NSC673596), staurosporine (NSC755774), SY5609 (NSC837396), and tovorafenib (DAY101, NSC766906), were obtained from the National Cancer Institute (NCI) Developmental Therapeutics Program Chemical Repository. The FDA-approved anticancer drug set is available from the NCI Developmental Therapeutics Program. […] The stock solutions were prepared in dimethyl sulfoxide (DMSO, Sigma-Aldrich, St. Louis, MO, cat. D2650) at 800-fold the tested concentration and stored at -70 degrees C prior to their use. All drugs and investigational agents were tested over a range starting from a high concentration at or near the clinical Cmax and decreasing in half-log increments. If the clinical Cmax for an agent had not been determined, the highest concentration tested was 10 microM.
# Cell Culture. All cells were maintained in an incubator at 37 degrees C and 5% CO2 with 95% humidity. The PDC lines were cultured according to standard operating procedures established by the NCI PDMR. All PDCs were thawed and cultured in Matrigel-coated flasks prepared with a working solution of 1X Ham's F-12 nutrient mix, without supplementation (Invitrogen, Waltham, MA, cat. 11765054), 100 U/mL penicillin-streptomycin (Invitrogen, cat. 15140122), and 2.5% Matrigel (Corning Inc., Corning, NY, cat. 354248) for the first three passages. The 362531-283-R-J2-PDC and 782815-120-R-J1-PDC lines were cultured in 6C/Colon 1B media, which includes advanced DMEM/F-12 (Thermo Fisher Scientific, cat. 12634028), 10 mM HEPES (Thermo Fisher Scientific, cat. 15630080), 1X GlutaMAX supplement (Thermo Fisher Scientific, cat. 35050061), 0.1 mg/mL primocin (InvivoGen, San Diego, CA, cat. ant-pm-2), 10% defined fetal bovine serum, heat inactivated (HyClone Laboratories Inc., Logan, UT, cat. SH30070.03HI), 50% L-WRN conditioned media (ATCC, cat. CRL-3276), 1.25 mM N-Acetyl-L-cysteine (Sigma-Aldrich, cat. A9165), 10 mM nicotinamide (Sigma-Aldrich, cat. N0636), 1X B-27 supplement (Thermo Fisher Scientific, cat. 17504044), 1X N-2 supplement (Thermo Fisher Scientific, cat. 17502048), 50 ng/mL human EGF (Thermo Fisher Scientific, cat. PHG0311), and 10 microM Y-27632 dihydrochloride (Tocris Bioscience, cat. 1254). The K12877-001-R-J1-PDC line was cultured in 6I media, which includes all 6C/Colon 1B media plus 10 ng/mL human FGF-10 (PeproTech, cat. 100-26), 1 ng/mL human FGF-2 (PeproTech, cat. 100-18B), 1 µM prostaglandin E2 (Tocris Bioscience, cat. 2296), […] hydrocortisone (Sigma-Aldrich, cat. H4001), and […] bovine insulin (Sigma-Aldrich, cat. I6634). The K86415-001-R-J1-PDC line was cultured in 6D media, which includes all 6C/Colon 1B media components minus the L-WRN conditioned media. The 485176-168-R4-J1-PDC was cultured in PANC media, which includes all 6C/Colon 1B media plus 100 ng/mL human FGF-10 (PeproTech, cat. 100-26), 500 nM SB-431542 (Selleckchem, cat. S1067), and 10 nM gastrin (Tocris Bioscience, cat. 3006). […]
# [1] = second compound 0.0316 µM, first compound 0.0316 µM
# [2] = second compound 0.0316 µM, first compound 0.1 µM
# [3] = second compound 0.1 µM, first compound 0.0316 µM
# [4] = second compound 0.1 µM, first compound 0.1 µM
# [5] = second compound 0.316 µM, first compound 0.0316 µM
# [6] = second compound 0.316 µM, first compound 0.1 µM
# [7] = second compound 1 µM, first compound 0.0316 µM
# [8] = second compound 1 µM, first compound 0.1 µM
# [9] = second compound 3.16 µM, first compound 0.0316 µM
# [10] = second compound 3.16 µM, first compound 0.1 µM
# [11] = second compound 10 µM, first compound 0.0316 µM
# [12] = second compound 10 µM, first compound 0.1 µM
# 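Note: spheroids exposed to compound for 7 days before readout.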
# 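Throughout, for viability, T/C: 100% = DMSO vehicle control luminescence.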
smiles,measurement,setting,value
CC(C)n1nc(-c2ccc3oc(N)nc3c2)c2c(N)ncnc21 + C#Cc1c(F)ccc2cc(O)cc(-c3ncc4c(N5CC6CCC(C5)N6)nc(OCC56CCCN5CC(F)C6)nc4c3F)c12,IC50,second compound 0.0316 µM,98.5 nM
same,IC50,second compound 0.1 µM,78.5 nM
same,IC50,second compound 0.316 µM,48.7 nM
same,IC50,second compound 1 µM,41.6 nM
same,IC50,second compound 3.16 µM,39.2 nM
same,IC50,second compound 10 µM,10.6 nM
same,"viability, T/C","second compound 0.0316 µM, first compound 0.000316 µM",98.6%
same,"viability, T/C","second compound 0.0316 µM, first compound 0.001 µM",97.7%
same,"viability, T/C","second compound 0.0316 µM, first compound 0.00316 µM",89.9%
same,"viability, T/C","second compound 0.0316 µM, first compound 0.01 µM",75.7%
same,"viability, T/C",[1],64%
same,"viability, T/C",[2],49.4%
same,"viability, T/C","second compound 0.1 µM, first compound 0.000316 µM",95.7%
same,"viability, T/C","second compound 0.1 µM, first compound 0.001 µM",99.7%
same,"viability, T/C","second compound 0.1 µM, first compound 0.00316 µM",90.6%
same,"viability, T/C","second compound 0.1 µM, first compound 0.01 µM",78.5%
same,"viability, T/C",[3],62.6%
same,"viability, T/C",[4],46.6%
same,"viability, T/C","second compound 0.316 µM, first compound 0.000316 µM",91.6%
same,"viability, T/C","second compound 0.316 µM, first compound 0.001 µM",97.1%
same,"viability, T/C","second compound 0.316 µM, first compound 0.00316 µM",79.5%
same,"viability, T/C","second compound 0.316 µM, first compound 0.01 µM",79.5%
same,"viability, T/C",[5],56%
same,"viability, T/C",[6],37.8%
same,"viability, T/C","second compound 1 µM, first compound 0.000316 µM",90.5%
same,"viability, T/C","second compound 1 µM, first compound 0.001 µM",88%
same,"viability, T/C","second compound 1 µM, first compound 0.00316 µM",69.9%
same,"viability, T/C","second compound 1 µM, first compound 0.01 µM",71.5%
same,"viability, T/C",[7],55.6%
same,"viability, T/C",[8],35.5%
same,"viability, T/C","second compound 3.16 µM, first compound 0.000316 µM",82.2%
same,"viability, T/C","second compound 3.16 µM, first compound 0.001 µM",74.4%
same,"viability, T/C","second compound 3.16 µM, first compound 0.00316 µM",68.5%
same,"viability, T/C","second compound 3.16 µM, first compound 0.01 µM",73.5%
same,"viability, T/C",[9],52.3%
same,"viability, T/C",[10],31.4%
same,"viability, T/C","second compound 10 µM, first compound 0.000316 µM",74.6%
same,"viability, T/C","second compound 10 µM, first compound 0.001 µM",59.9%
same,"viability, T/C","second compound 10 µM, first compound 0.00316 µM",60.1%
same,"viability, T/C","second compound 10 µM, first compound 0.01 µM",53.3%
same,"viability, T/C",[11],40.3%
same,"viability, T/C",[12],29.9%
CC(Nc1ccc2c(c1)OCCn1cc(N3C(=O)OCC3C(F)F)nc1-2)C(N)=O (centres undefined) + C#Cc1c(F)ccc2cc(O)cc(-c3ncc4c(N5CC6CCC(C5)N6)nc(OCC56CCCN5CC(F)C6)nc4c3F)c12,IC50,second compound 0.0316 µM,> 10000 nM
same,IC50,second compound 0.1 µM,> 10000 nM
same,IC50,second compound 0.316 µM,> 10000 nM
same,IC50,second compound 1 µM,8110 nM
same,IC50,second compound 3.16 µM,2960 nM
same,IC50,second compound 10 µM,1040 nM
same,"viability, T/C",[1],94.9%
same,"viability, T/C",[2],95.5%
same,"viability, T/C","second compound 0.0316 µM, first compound 0.316 µM",94%
same,"viability, T/C","second compound 0.0316 µM, first compound 1 µM",78.8%
same,"viability, T/C","second compound 0.0316 µM, first compound 3.16 µM",76.6%
same,"viability, T/C","second compound 0.0316 µM, first compound 10 µM",66.6%
same,"viability, T/C",[3],93.6%
same,"viability, T/C",[4],90.7%
same,"viability, T/C","second compound 0.1 µM, first compound 0.316 µM",83.3%
same,"viability, T/C","second compound 0.1 µM, first compound 1 µM",81%
same,"viability, T/C","second compound 0.1 µM, first compound 3.16 µM",77%
same,"viability, T/C","second compound 0.1 µM, first compound 10 µM",62.3%
same,"viability, T/C",[5],94.8%
same,"viability, T/C",[6],84.3%
same,"viability, T/C","second compound 0.316 µM, first compound 0.316 µM",74.2%
same,"viability, T/C","second compound 0.316 µM, first compound 1 µM",69.9%
same,"viability, T/C","second compound 0.316 µM, first compound 3.16 µM",72%
same,"viability, T/C","second compound 0.316 µM, first compound 10 µM",51.9%
same,"viability, T/C",[7],82.1%
same,"viability, T/C",[8],89.9%
same,"viability, T/C","second compound 1 µM, first compound 0.316 µM",58.1%
same,"viability, T/C","second compound 1 µM, first compound 1 µM",69.4%
same,"viability, T/C","second compound 1 µM, first compound 3.16 µM",69.2%
same,"viability, T/C","second compound 1 µM, first compound 10 µM",43.6%
same,"viability, T/C",[9],82.4%
same,"viability, T/C",[10],63.2%
same,"viability, T/C","second compound 3.16 µM, first compound 0.316 µM",64.2%
same,"viability, T/C","second compound 3.16 µM, first compound 1 µM",59.5%
same,"viability, T/C","second compound 3.16 µM, first compound 3.16 µM",53.3%
same,"viability, T/C","second compound 3.16 µM, first compound 10 µM",38.4%
same,"viability, T/C",[11],59.4%
same,"viability, T/C",[12],57.2%
same,"viability, T/C","second compound 10 µM, first compound 0.316 µM",55.1%
same,"viability, T/C","second compound 10 µM, first compound 1 µM",50.8%
same,"viability, T/C","second compound 10 µM, first compound 3.16 µM",29.5%
same,"viability, T/C","second compound 10 µM, first compound 10 µM",31.1%
